Experiments:
Assay type in all cases: cell-based
[1] = target: T1, rat TRPV4 (Rattus norvegicus, UniProt Q9ERZ8); experiment: Calcium imaging of TRPV4 transfected HEK293 cells; conditions: IA 100 μM, compared to vehicle
T1 construct: expressed in transfected cells; host or cells: HEK293 cell line
Protocol: (§1) All error bars indicate SEM; p values in all subfigures but c represent analysis with one-way ANOVA Bonferroni's post hoc.
(§2) TRPV3-YFP [O'dell, D. K., Rimmerman, N., Pickens, S. R. & Walker J. M. Fatty acyl amides of endogenous tetrahydroisoquinolines are active at the recombinant human TRPV1 receptor. Bioorg. Med. Chem. 15, 6164-6169 (2007)], TRPV4 and mock-transfected cell lines were cultured in DMEM 1× with L-glutamine (Mediatech, Inc. Herndon, Va.), containing 1% penicillin-streptomycin (Invitrogen, Carlsbad, Calif.) and 10% foetal bovine serum.
(§3) Calcium imaging of HEK 293 cells. TRPV1, TRPV3, and TRPV4 expressing HEK293 cells were plated 24-48 h before imaging in 96 well plates, loaded with 3 μM Fura-2 AM and imaged as previously described [O'dell, D. K., Rimmerman, N., Pickens, S. R. & Walker J. M. Fatty acyl amides of endogenous tetrahydroisoquinolines are active at the recombinant human TRPV1 receptor. Bioorg. Med. Chem. 15, 6164-6169 (2007)].

[2] = target: T2, TRPV3 (Mus musculus, UniProt Q8K424); experiment: Calcium imaging of TRPV3+/+ and TRPV3−/− primary keratinocytes; design: endogenous in cells; host or cells: primary keratinocytes from TRPV3+/+ mouse pups (day 1-4); TRPV3-/- cells as control; conditions: IA 500 μM; camphor 10 mM
T2 sequence (Q8K424 1-791): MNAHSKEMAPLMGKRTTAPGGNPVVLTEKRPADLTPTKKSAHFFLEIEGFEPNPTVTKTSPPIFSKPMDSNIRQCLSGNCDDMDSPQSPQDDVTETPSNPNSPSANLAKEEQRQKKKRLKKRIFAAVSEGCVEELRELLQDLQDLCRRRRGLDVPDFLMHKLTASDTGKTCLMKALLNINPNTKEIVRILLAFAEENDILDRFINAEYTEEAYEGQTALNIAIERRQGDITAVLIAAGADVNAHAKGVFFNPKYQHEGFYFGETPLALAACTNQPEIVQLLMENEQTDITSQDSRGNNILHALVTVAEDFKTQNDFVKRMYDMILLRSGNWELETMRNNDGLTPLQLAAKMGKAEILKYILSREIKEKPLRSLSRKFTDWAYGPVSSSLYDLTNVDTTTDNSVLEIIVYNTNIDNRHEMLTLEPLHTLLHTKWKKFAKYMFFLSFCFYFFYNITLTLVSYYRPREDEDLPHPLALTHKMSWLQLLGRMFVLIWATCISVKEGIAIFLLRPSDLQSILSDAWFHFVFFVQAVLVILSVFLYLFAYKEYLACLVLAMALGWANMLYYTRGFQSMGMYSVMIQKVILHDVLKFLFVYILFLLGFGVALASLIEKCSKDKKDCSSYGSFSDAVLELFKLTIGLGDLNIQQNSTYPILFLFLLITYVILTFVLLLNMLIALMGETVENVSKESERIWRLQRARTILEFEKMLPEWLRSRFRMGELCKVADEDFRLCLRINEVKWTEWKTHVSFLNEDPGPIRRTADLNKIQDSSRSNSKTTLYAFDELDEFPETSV
From the text: (§4) HEK293 cells were transiently transfected with a rat TRPV2 plasmid using lipofectamine reagent (Invitrogen, Carlsbad, Calif.) according to manufacturer's protocol. They were then maintained in Dulbecco's modified Eagle Medium/10% fetal calf serum supplemented with Penicillin, Streptomycin, and L-glutamine. Primary keratinocytes from TRPV3-deficient and TRPV3+/+ mouse pups (day 1-4) were harvested and cultured as described previously [Chung, M. K., Lee, H., Mizuno, A., Suzuki, M. & Caterina, M. J. TRPV3 and TRPV4 mediate warmth-evoked currents in primary mouse keratinocytes. J. Biol. Chem. 279, 21569-21575 (2004)].
Calcium imaging of TRPV3^+/+ and TRPV3^−/− keratinocytes. Primary keratinocytes from TRPV3-deficient and WT mouse pups (day 1-4) were harvested and cultured as described [Chung, M. K., Lee, H., Mizuno, A., Suzuki, M. & Caterina, M. J. TRPV3 and TRPV4 mediate warmth-evoked currents in primary mouse keratinocytes. J. Biol. Chem. 279, 21569-21575 (2004)].
Cells were plated on glass coverslips (10^5/cm^2) and incubated for 48-60 h, then loaded with fura-2 AM (20 μM, 0.04% pleuronic acid, 32° C. for 1 h) in imaging buffer containing (in mM): 130 NaCl, 2.5 CaCl2, 0.6 MgCl2, 10 HEPES, 1.2 NaHCO3, 10 glucose, pH 7.45. Ratiometric Ca^2+ imaging was performed as previously described [O'dell, D. K., Rimmerman, N., Pickens, S. R. & Walker J. M. Fatty acyl amides of endogenous tetrahydroisoquinolines are active at the recombinant human TRPV1 receptor. Bioorg. Med. Chem. 15, 6164-6169 (2007)]. Drug was added to the bath following a period of baseline recording. Calcium measurements were made from 30 randomly selected cells per coverslip.
Data analysis of calcium imaging data. Analysis of calcium imaging data was done using a non-linear regression curve fit (Graphpad 4 Prism, San Diego, Calif.). t tests and one way ANOVA were calculated using SPSS (Chicago, Ill.). […] Averaged drug responses over 30 randomly selected cells per coverslip were analyzed with two-tailed unpaired t tests.

[3] = target: TRPV1 (Homo sapiens, UniProt Q8NER1); experiment: Calcium imaging of TRPV1-transfected HEK293 cells; conditions: IA 100 μM, compared to vehicle
Protocol: as §1
Human HEK 293 cells stably expressing TRPV1 were a kind gift from Merck Research Laboratories (Whitehouse Station, N.J.). Cells were cultured in minimal essential medium, Eagle, modified with non-essential amino acids, 1 mM sodium pyruvate, 2 mM L-glutamine and 1.5 g/L sodium bicarbonate (ATCC, Mabassas, Va.), containing 1% Penicillin-streptomycin, and 10% foetal bovine serum. Cells were passaged three times a week using Trypsin-EDTA 1× (Invitrogen, Carlsbad, Calif.) and grown under 5% CO2 at 37° C.
as §3, with “Bioorg.” left out

[4] = tested on: IκBα degradation; experiment: IκBα degradation in TNFα-stimulated HeLa cells (Western blot); conditions: HeLa cells pre-incubated 2 hrs, then TNFα 20 ng/ml for 20 minutes
Protocol: HeLa cells were pre-incubated with IA (FIG. 1A) or IN (FIG. 1B) at the indicated concentrations for 2 hrs prior to 20 minutes exposure to TNFα (20 ng/ml). At least three more experiments were repeated with highest indicated dose, resulting similarly.
IκBα Degradation. HeLa cells were pre-incubated with IA (50 μg/ml, dissolved in ethanol) for 2 hrs, and then stimulated for 20 minutes with TNFα (20 ng/ml, Emeryville, Calif., USA). After removing the slides from plates for immonostaining (see below), proteins were extracted from remaining cells in the plates. Proteins were extracted from cells in NP-40 lysis buffer. Total protein concentration was determined using the Bradford method. Lysates were then analyzed either by Western blotting (WB).
Western Blot (WB). Following separation by SDS-PAGE, proteins were blotted to a polyvinylidene difluoride (PVDF) membrane (Millipore). The membrane was blocked in 5% (w/v) milk powder and then incubated in TBST containing the primary antibody and 2% (w/v) milk powder. All phospho-specific antibodies were purchased from Cell signaling Inc. αIκBa, αp65 and αCOX2 antibodies from Santa Cruz Inc. (California, USA). After binding of an appropriate secondary antibody coupled to horseradish peroxidase, proteins were visualized by enhanced chemiluminiscence according to the instructions of the manufacturer (Amersham Lifescience).

[5] = target: T3, mouse TRPV3-YFP (Mus musculus, UniProt Q8K424); experiment: Calcium imaging of HEK293 cells expressing mouse TRPV3-YFP; conditions: IA 100 μM; 2-APB positive control
T3 construct: expressed in transfected cells
T3 sequence (Q8K424 1-791): T2 sequence (Q8K424 1-791)
Protocol: as §1
as §2, with “Bioorg.” left out
as §3, with “Bioorg.” left out
(§5) For single cell calcium imaging, HEK293-rat TRPV2 and HEK293-mouse TRPV3-YFP expressing cells were plated on collagen-coated glass cover slips. Cells were loaded for 60 min with 3 μM Fura-2 AM.
Data analysis of calcium imaging data. Analysis of calcium imaging data was done using a non-linear regression curve fit (Graphpad 4 Prism, San Diego, Calif.). t tests and one way ANOVA were calculated using SPSS (Chicago, Ill.). In the keratinocyte experiments, drug-induced response for each cell was taken as the maximal post-drug measurements over time minus the average of the last 5 pre-drug measurements. Averaged drug responses over 30 randomly selected cells per coverslip were analyzed with two-tailed unpaired t tests.

[6] = target: T3, mouse TRPV3-YFP; experiment: Whole-cell voltage-clamp, TRPV3-YFP expressing HEK293 cells; conditions: IA 200 μM; 2-APB 100 μM; charge −85 to −45 mV
Protocol: (§6) Electrophysiological recording. Currents were recorded using whole-cell voltage-clamp. Pipettes were pulled from microcapillary glass (A-M Systems). A coverslip containing cells was transferred to a 300 μL chamber that was constantly perfused (1-2 mL/min) with external solution. Voltage protocols were generated and data were digitized and recorded using Pulse (HEKA Elektronik) software in conjunction with an Axopatch 200A amplifier (Axon Instruments), and the data analyzed using an in-house Visual Basic (Microsoft) analysis program.
(§7) The external solution contained (in mM): 120 NaCl, 5 KCl, 1 MgCl2, 2 CaCl2, 10 Glucose and 20 HEPES, pH 7.4 with NaOH. The measured charge (pC) was defined as the charge elicited between -85 and -45 mV by a ramping voltage stimulus (−85 mV to +35 mV, 0.54 mV/msec; holding potential -55 mV). Currents were sampled at 5 kHz. Experimental and control cells were alternated whenever possible. Control values were obtained from adjacent cells with no detectable YFP fluorescence, presumed to be non-TRPV3-expressing.

[7] = tested on: mouse TRPV3-YFP; experiment: as above; conditions: IA 200 μM; 2-APB 100 μM; cells not expressing TRPV3
Protocol: as §6, §7

[8] = target: T4, rat-TRPV2 (Rattus norvegicus, UniProt Q9WUD2); experiment: Calcium imaging of HEK293 cells transiently transfected with rat-TRPV2; conditions: IA 100 μM
T4 construct: expressed in transfected cells; host or cells: HEK293 (transient, lipofectamine)
From the text: as §1, §4, §5

T4 sequence (Q9WUD2 whole entry): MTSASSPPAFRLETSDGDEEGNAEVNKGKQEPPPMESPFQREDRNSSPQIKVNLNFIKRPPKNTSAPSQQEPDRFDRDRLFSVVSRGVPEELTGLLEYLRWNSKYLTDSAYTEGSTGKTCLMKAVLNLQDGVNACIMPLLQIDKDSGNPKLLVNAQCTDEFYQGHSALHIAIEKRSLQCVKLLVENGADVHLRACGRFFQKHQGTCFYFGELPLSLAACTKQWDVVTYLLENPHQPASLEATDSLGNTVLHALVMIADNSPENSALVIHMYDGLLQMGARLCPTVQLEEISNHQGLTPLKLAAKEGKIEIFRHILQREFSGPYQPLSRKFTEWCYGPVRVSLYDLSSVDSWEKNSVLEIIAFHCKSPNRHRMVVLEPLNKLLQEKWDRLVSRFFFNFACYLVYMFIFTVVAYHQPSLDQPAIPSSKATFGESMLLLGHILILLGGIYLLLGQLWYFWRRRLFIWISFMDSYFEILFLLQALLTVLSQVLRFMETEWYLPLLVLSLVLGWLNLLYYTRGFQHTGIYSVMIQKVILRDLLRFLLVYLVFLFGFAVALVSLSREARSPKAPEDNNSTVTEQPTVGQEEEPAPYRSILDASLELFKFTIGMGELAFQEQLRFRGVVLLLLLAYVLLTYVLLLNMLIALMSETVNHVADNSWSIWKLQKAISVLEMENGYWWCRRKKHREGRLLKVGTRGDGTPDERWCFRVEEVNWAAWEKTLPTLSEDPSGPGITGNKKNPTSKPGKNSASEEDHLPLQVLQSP
TRPV1, sequence (Q8NER1 whole entry): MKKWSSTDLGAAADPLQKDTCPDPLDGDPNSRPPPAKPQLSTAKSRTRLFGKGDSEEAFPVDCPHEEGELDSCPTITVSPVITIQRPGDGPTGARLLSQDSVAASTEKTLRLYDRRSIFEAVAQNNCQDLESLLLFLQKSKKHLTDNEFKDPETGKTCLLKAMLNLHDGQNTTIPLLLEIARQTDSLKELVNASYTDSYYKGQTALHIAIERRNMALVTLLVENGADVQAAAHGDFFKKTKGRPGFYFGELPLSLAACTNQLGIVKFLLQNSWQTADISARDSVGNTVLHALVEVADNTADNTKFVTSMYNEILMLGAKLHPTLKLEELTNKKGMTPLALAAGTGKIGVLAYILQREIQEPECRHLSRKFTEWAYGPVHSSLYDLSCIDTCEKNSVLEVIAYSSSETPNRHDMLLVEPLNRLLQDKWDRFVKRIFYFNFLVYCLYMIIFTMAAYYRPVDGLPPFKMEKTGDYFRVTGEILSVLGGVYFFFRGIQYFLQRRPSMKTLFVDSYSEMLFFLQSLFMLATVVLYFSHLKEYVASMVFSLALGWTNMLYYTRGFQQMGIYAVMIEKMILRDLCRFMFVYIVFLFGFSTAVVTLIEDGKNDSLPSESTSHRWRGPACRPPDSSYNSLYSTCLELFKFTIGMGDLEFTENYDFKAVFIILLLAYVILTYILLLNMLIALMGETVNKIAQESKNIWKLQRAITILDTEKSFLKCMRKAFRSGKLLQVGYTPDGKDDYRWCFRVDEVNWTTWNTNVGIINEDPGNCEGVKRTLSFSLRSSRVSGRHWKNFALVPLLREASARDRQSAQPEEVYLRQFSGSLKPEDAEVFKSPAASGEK
T1 sequence (Q9ERZ8 whole entry): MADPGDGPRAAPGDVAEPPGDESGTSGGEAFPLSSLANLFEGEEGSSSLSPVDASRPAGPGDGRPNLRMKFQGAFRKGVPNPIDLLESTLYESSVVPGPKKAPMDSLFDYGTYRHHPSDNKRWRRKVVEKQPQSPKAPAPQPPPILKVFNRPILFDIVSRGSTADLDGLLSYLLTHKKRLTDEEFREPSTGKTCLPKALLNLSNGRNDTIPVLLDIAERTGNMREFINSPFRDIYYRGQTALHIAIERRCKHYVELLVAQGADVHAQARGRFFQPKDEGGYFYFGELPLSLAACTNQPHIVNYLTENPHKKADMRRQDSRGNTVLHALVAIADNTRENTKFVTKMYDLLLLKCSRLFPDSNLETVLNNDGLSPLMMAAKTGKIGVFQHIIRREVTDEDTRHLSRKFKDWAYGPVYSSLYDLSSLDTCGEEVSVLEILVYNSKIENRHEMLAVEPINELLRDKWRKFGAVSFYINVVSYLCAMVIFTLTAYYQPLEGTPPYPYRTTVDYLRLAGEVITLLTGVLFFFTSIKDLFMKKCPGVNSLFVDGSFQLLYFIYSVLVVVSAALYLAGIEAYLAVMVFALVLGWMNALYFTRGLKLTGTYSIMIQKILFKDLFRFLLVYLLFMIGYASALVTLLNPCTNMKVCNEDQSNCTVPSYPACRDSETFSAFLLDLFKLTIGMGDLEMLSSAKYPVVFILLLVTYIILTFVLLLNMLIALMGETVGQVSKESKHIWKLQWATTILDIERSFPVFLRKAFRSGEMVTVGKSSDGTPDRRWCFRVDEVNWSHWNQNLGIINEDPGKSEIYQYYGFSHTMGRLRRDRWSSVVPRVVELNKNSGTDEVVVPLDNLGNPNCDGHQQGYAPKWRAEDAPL

In the case of `CCCCCCCCCC(=O)O[C@@H]1[C@@H](C)[C@@]2(O)[C@@H](C=C(CO)C[C@@]3(O)C(=O)C(C)=C[C@@H]23)[C@@H]2C(C)(C)[C@]12OC(=O)CCCCCCCCC` [4αPDD, reference compound], the “calcium influx in TRPV4 transfected HEK293 cells” value [1] is reported as “robust calcium increase”.

For `CC12CCC(CC1=O)C2(C)C` (centres unmarked) [Camphor, camphor, reference compound], the “calcium influx in primary keratinocytes from WT mice” value [2] was “showed a similar effect”.

With `COc1cc(CNC(=O)CCCC/C=C/C(C)C)ccc1O` [Capsaicin, reference compound] the “calcium influx in TRPV1-transfected HEK293 cells” value [3] was “robust calcium increase”.

For `C/C1=C\CC2(C(C)C)CCC(C)(O2)C(O)CC/C(C)=C/CC1` (centres unmarked) [IN, incensole], the IκBα degradation [4] was “inhibited IκBα degradation in a dose dependent manner”.

In the case of `NCCOB(c1ccccc1)c1ccccc1` [2-APB, 2-aminoethyl diphenylborinate, reference compound], the “calcium influx vs vehicle” value [5] is reported as “evoked robust calcium increases”, the “current activation in TRPV3(+) HEK293 cells” value [6] is reported as “activates currents” and the “current activation in TRPV3(−) control cells” value [7] is reported as “not in TRPV3(−) cells”. The “calcium influx in rat-TRPV2 transfected HEK293 cells” value [8] was “robustly increased calcium”.

Reference: patent US20100099756A1, “USES OF INCENSOLE, INCENSOLE ACETATE AND DERIVATIVES THEREOF” (YISSUM RESEARCH DEVELOPMENT COMPANY OF THE HEBREW …, priority 2006, published 2010)
